Assay results reported in publication PMC10610134, “Verubulin (Azixa) Analogues with Increased Saturation: Synthesis, SAR and Encapsulation in Biocompatible Nanocontainers Based on Ca^2+ or Mg^2+ Cross-Linked Alginate” (Pharmaceuticals, 2023).

Tests used:
Format in all cases: cell-based
[1] = tested on: immortalized human embryonic kidney cell line HEK293T; assay: MTT cytotoxicity assay, HEK293T; conditions: HEK-293T, 64 h treatment, MTT, read-out: IC50, nM HEK293T
Source text: The obtained series of verubulin analogues 2a–r (which also included three by-products isolated in the reactions according to Scheme 2) were initially evaluated for cytotoxicity against commonly used human breast cancer cell line MCF7′ (fast-growth subclone), human lung epithelial carcinoma cell line A549 and etiologically non-cancer immortalized lung fibroblast cell line VA13 (WI38 subline 2RA). Cytotoxicity against immortalized human embryonic kidney cell line HEK293T, characterized by a high growth rate, was also studied regarding cytotoxicity against non-cancerous fast-growth cells. A standard MTT assay was performed; verubulin (1) served as a positive reference. The data obtained are presented in Table 1 (for dose–response curves, see Supplementary Materials).
Human breast cancer cell line MCF7′ and human lung adenocarcinoma cell line A549 were kindly provided by Dr. S. Dmitriev (Lomonosov Moscow State University), immortalized human fibroblast cell line VA13 (WI38 subline 2RA) was kindly provided by Dr. M. Rubtsova (Lomonosov Moscow State University), human embryonic kidney HEK293T cell line was kindly provided by Dr. E. Knyazhanskaya (Lomonosov Moscow State University). MCF7′, VA13, A549 and HEK293T cell lines were maintained in DMEM/F-12 (Thermo Fisher Scientific, Waltham, MA, USA) culture medium containing 10% fetal bovine serum (Thermo Fisher Scientific, Waltham, MA, USA) and 50 μg/mL penicillin and 0.05 mg/mL streptomycin at 37 °C (Thermo Fisher Scientific, Waltham, MA, USA) in 5% CO2. Cells were maintained at 37 °C in a humidified MCO-18AC incubator (Sanyo, Tokyo, Japan) supplied with 5% CO2. Cell cultures were tested for the absence of mycoplasma and validated by STR.
The cytotoxicity of the substances was tested using the 3-(4,5-dimethylthiazol-2-yl)2,5-diphenyl tetrazolium bromide (MTT) assay with some modifications. A total of 2500 cells per well for the MCF7′, HEK293T, A549 cell lines or 4000 cells per well for the VA-13 cell line were plated out in 135 μL of DMEM-F12 media (Gibco, Thermo Fisher Scientific, Waltham, MA, USA) in a 96-well plate and incubated in the 5% CO2 incubator for the first 20 h without treatment. Then, 15.8 μL of media–DMSO solutions of tested substances (final DMSO concentrations in the media were 0.5% or less) was added to the cells (triplicate each) and cells were treated for 64 h with 0.023 mg/L–50 mg/L (eight dilutions) of compounds 2f,n,o,r; 1.14 μg/L–2.5 mg/L (eight dilutions) of compounds 2a,b,d,g,h,k,l,p,q; 57.2 ng/L–125 μg/L (eight dilutions) of compounds 2e,i,j; 22.9 ng/L–50 μg/L (eight dilutions) of compounds 1,2c,m. Doxorubicin was used as a control substance. Then, the MTT reagent (Paneco LLC, Moscow, Russia) was added to cells up to a final concentration of 0.5 g/L (10 × stock solution in PBS was used) and incubated for 2 h at 37 °C in the incubator, under an atmosphere of 5% CO2. Then, the MTT solution was discarded, and 140 μL of DMSO (PharmaMed LLC, Moscow, Russia) was added. The plates were swayed on a shaker (120 rpm) to dissolve the formazan. The absorbance was measured using a microplate reader (VICTOR X5 Light Plate Reader, PerkinElmer, Waltham, MA, USA) at a wavelength of 555 nm (in order to measure formazan concentration). The results were used to construct dose–response graphs and to estimate IC50 values (IC50 is the concentration resulting in half of the maximal cytotoxic effect) with GraphPad Prism V, GraphPadSoftware, Inc., San Diego, CA, USA.

A549 cell line = assay: MTT assay of nanocontainer formulations, A549; conditions: Homo sapiens, 48 h treatment, 2c concentration in formulations = 0.1 × COO− concentration
Description: (§1) The MTT assay was carried out on the A549 cell line and non-tumor hTERT-immortalized human fibroblasts for 48 h (Table 2; for cell survival curves, see Supplementary Materials).
(§2) Lung adenocarcinoma A549, breast adenocarcinoma MDA-MB-231 and non-tumor fibroblasts immortalized with h-TERT cell lines were obtained from the American Type Culture Collection (Manassas, VA, USA). Cells were routinely propagated in Dulbecco’s modified Eagle’s medium (DMEM) supplemented with 10% fetal bovine serum (HyClone, Logan, UT, USA), 2 mM L-glutamine, 100 U/mL penicillin and 100 μg/mL streptomycin (PanEco, Moscow, Russia) at 37 °C, 5% CO2 in a humidified atmosphere. Cells in the logarithmic phase of growth were used in the experiments.
(§3) The cytotoxicity of compounds for human cell lines (A549, MDA-MB-231, non-tumor fibroblasts) was assessed in MTT assays. […]
(§4) Cytotoxicity was assessed in a formazan conversion assay (MTT test) after a 48 h exposure. After the completion of drug exposure, 0.5 mg/mL 3-(4,5-dimethylthiazol-2-yl)-2,5-diphenyltetrazolium bromide (MTT reagent) was added to cells for 2 h, the culture medium was removed, cells were resuspended in 100 μL DMSO and the optical densities were measured on a Multiscan FC plate spectrophotometer (Thermo Fisher Scientific, Waltham, MA, USA) at a wavelength of 571 nm. […]

[2] = tested on: hTERT-immortalized human fibroblasts; assay: MTT assay of nanocontainer formulations, fibroblasts; conditions: Fibroblast, 48 h treatment, 2c concentration in formulations = 0.1 × COO− concentration
Description: as §1, §2, §3, §4

IC50 (A549 cell line): 0.6 ± 0.06 µM
Compound: COc1ccc(N(C)c2nc(C)nc3c2CCCC3)cc1 [Compound 2c, N-(4-methoxyphenyl)-N,2-dimethyl-5,6,7,8-tetrahydroquinazolin-4-amine]
IC50 [1]: 2.9 ± 0.5 nM | IC50 [2]: 4.2 ± 0.3 µM
